Experimental data as given in patent US6399590B2, “Phosphoglycolipid and methods for its use” (Corixa Corporation, priority 1998, dated 2002).

How the values were obtained:
[1] = tested on: Mongrel dogs, LAD occlusion/reperfusion; experiment: Infarct size in dogs with bolus plus drug infusion; type: in vivo, dog; conditions: FIG. 3
Experimental: Mongrel dogs weighing 16-24 kg were randomly assigned to one of four groups: vehicle control; L34 high dose bolus plus infusion; L34 low dose bolus plus infusion and L34 bolus only. Animals in the L34 high dose bolus plus infusion group received an intravenous bolus injection of 70 μg/kg L34 formulated in vehicle (40% propylene glycol and 10% ethanol in water) and diluted in 5% dextrose in water to a final volume of 10 ml immediately followed by 40 μg/kg/h infusion of the drug beginning three hours prior to occlusion. The low dose bolus plus infusion group of dogs were bolus dosed with 35 μg/kg of drug followed immediately thereafter by infusion of drug at a dose of 4.0 μg/kg/h. […]
After stabilization, animals underwent a 60 min period of occlusion. Heart rate and arterial pressures were monitored at baseline, immediately before the sustained occlusion, and at 10 min after the onset of occlusion. […] The severity of ischemia was assessed in all dogs by measurement of RMBF at 10 min after the onset of LAD occlusion.
At the end of 3 h reperfusion the LAD was reoccluded and UNISPERSE® blue pigment (0.25-0.5 ml/kg) was injected into the coronary vasculature via the left atrial catheter to delineate the in vivo boundaries of the occluded LAD bed, and, with animals under deep anesthesia, cardiac arrest was produced by intracardiac injection of KCl. […] RMBF was then quantified using standard methods.

[2] = tested on: rabbits (fever response); experiment: Three rabbit USP pyrogen test; type: in vivo; design: key to Average Temperature Rise: body temperature rise in °F (decreases recorded as zero)
Experimental: The compound of the subject invention was evaluated for pyrogenicity using a standard three rabbit USP pyrogen test (NAMSA, Northwood Ohio) at dose levels between 10 and 1000 μg/kg. Three rabbits were intravenously administered the compound in 40% propylene glycol and 10% ethanol in water at varying doses diluted one to one in D5W prior to dosing. Each animal's body temperature was monitored over the course of 4 h. Pyrogenic doses and borderline pyrogenic doses were defined by established USP definitions. Any temperature decrease was recorded as a rise of zero. An individual rise in temperature of less than 0.5° F. was considered non-pyrogenic.

SMILES: CCCCCCCCCCCCCCCCCC(=O)O[C@H](CCCCCCCCCCC)CC(=O)N[C@H]1[C@H](OC[C@H]2OC(O)[C@H](NC(=O)C[C@@H](CCCCCCCCCCC)OC(=O)CCCCCCCCCCCCCCC)[C@@H](O)[C@@H]2O)O[C@H](CO)[C@@H](OP(=O)(O)O)[C@@H]1OC(=O)C[C@@H](CCCCCCCCCCC)OC(=O)CCCCCCCCCCCCC (stereo partly drawn) [L34, 2-Deoxy-6-O-[2-deoxy-4-O-phosphono-3-O-[(R)-3-tetradecanoyloxytetradecanoyl]-2-[(R)-3-octadecanoyloxytetradecanoylamino]-β-D-glucopyranosyl]-2-[(R)-3-hexadecanoyloxytetradecanoylamino]-D-glucopyranose]
- infarct size as ratio of area of necrosis (AN) to area at risk (AR) ([1]; 70 μg/kg bolus only, 3 h before occlusion): no reduction in infarct size
- infarct size as ratio of area of necrosis (AN) to area at risk (AR) ([1]; bolus (70 or 35 μg/kg) plus infusion (40 or 4.0 μg/kg/h) beginning 3 h prior to occlusion): statistically significant reduction in infarct size
- Average Temperature Rise ([2]; L34 dose 10 μg/kg i.v.): 0.14
- Average Temperature Rise ([2]; L34 dose 20 μg/kg i.v.): 0.17
- Average Temperature Rise ([2]; L34 dose 30 μg/kg i.v.): 0.17
- Average Temperature Rise ([2]; L34 dose 40 μg/kg i.v.): 0.00
- Average Temperature Rise ([2]; L34 dose 60 μg/kg i.v.): 0.10
- Average Temperature Rise ([2]; L34 dose 80 μg/kg i.v.): 0.13
- Average Temperature Rise ([2]; L34 dose 120 μg/kg i.v.): 0.23
- Average Temperature Rise ([2]; L34 dose 160 μg/kg i.v.): 0.17
- Average Temperature Rise ([2]; L34 dose 240 μg/kg i.v.): 0.00
- Average Temperature Rise ([2]; L34 dose 360 μg/kg i.v.): 0.30
- Average Temperature Rise ([2]; L34 dose 480 μg/kg i.v.): 0.06
- Average Temperature Rise ([2]; L34 dose 500 μg/kg i.v.): 0.12
- Average Temperature Rise ([2]; L34 dose 1000 μg/kg i.v.): 0.10
- pyrogenicity ([2]; i.v., dose levels between 10 and 1000 μg/kg): not pyrogenic at any of the doses tested
